Reference: ChEMBL document CHEMBL4229341, “3-Hydroxy-1,5-dihydro-2H-pyrrol-2-ones as novel antibacterial scaffolds against methicillin-resistant Staphylococcus aureus” (2018)
Converted amounts (≈) assume the structure as drawn.

Tests used:
Assay type in all cases: functional
[1] = test system: Staphylococcus aureus; experiment: Antibacterial activity against methicillin resistant Staphylococcus aureus ATCC 33591 after 16 to 20 hrs by CLSI method
[2] = test system: Bacillus cereus; experiment: Antibacterial activity against Bacillus cereus
[3] = test system: Staphylococcus aureus; experiment: Antibacterial activity against methicillin resistant Staphylococcus aureus BAA-44 after 16 to 20 hrs by CLSI method
[4] = test system: Staphylococcus aureus; experiment: Antibacterial activity against linezolid/methicillin resistant Staphylococcus aureus NR 45924 after 16 to 20 hrs by CLSI method
[5] = test system: Staphylococcus aureus; experiment: Antibacterial activity against methicillin resistant Staphylococcus aureus NR 45898 after 16 to 20 hrs by CLSI method
[6] = test system: Staphylococcus aureus; experiment: Antibacterial activity against methicillin resistant Staphylococcus aureus NR 45906 after 16 to 20 hrs by CLSI method
[7] = test system: Staphylococcus aureus; experiment: Antibacterial activity against linezolid/methicillin resistant Staphylococcus aureus NR 45926 after 16 to 20 hrs by CLSI method
[8] = test system: Staphylococcus aureus; experiment: Antibacterial activity against methicillin resistant Staphylococcus aureus NR 45913 after 16 to 20 hrs by CLSI method
[9] = test system: Staphylococcus aureus; experiment: Antibacterial activity against methicillin resistant Staphylococcus aureus ATCC 43300 after 16 to 20 hrs by CLSI method
[10] = test system: Staphylococcus epidermidis; experiment: Antibacterial activity against methicillin resistant Staphylococcus epidermidis ATCC 51625 after 16 to 20 hrs by CLSI method
[11] = test system: Staphylococcus epidermidis; experiment: Antibacterial activity against methicillin resistant Staphylococcus epidermidis NR 46386 after 16 to 20 hrs by CLSI method
[12] = test system: Staphylococcus aureus; experiment: Antibacterial activity against methicillin resistant Staphylococcus aureus BAA-1685 after 16 to 20 hrs by CLSI method

Row | SMILES | MIC [1] [µg/mL] | other results
1 | O=C1C(O)=C(c2ccccc2[N+](=O)[O-])C2CCCN12 (stereo not drawn) | > 128 | –
2 | O=C1C(O)=C(c2ccc(Br)cc2)C2CCCN12 (stereo not drawn) | 128 (≈ 435 µM) | –
3 | COC1=C(c2ccc(C(F)(F)F)cc2)C2CCCCN2C1=O (stereo not drawn) | > 128 | –
4 | COc1ccc(C2=C(O)C(=O)N3CCCCC23)cc1 (stereo not drawn) | > 128 | –
5 | O=C1C(O)=C(c2ccccc2)C2CCCCN12 (stereo not drawn) | > 128 | –
6 | CCCCCC1=C(O)C(=O)N2CCCC12 (stereo not drawn) | > 128 | –
7 | O=C1C(O)=C(c2ccccc2)C2CCCN12 (stereo not drawn) | > 128 | MIC [2]: 50 to 100 µg/mL (≈ 232 to 465 µM)
8 | O=C1C(O)=C(c2cccs2)C2CCCN12 (stereo not drawn) | > 128 | –
9 | O=C1C(O)=C(c2ccc(C(F)(F)F)cc2)C2CCCCN12 (stereo not drawn) | 32 (≈ 108 µM) | –
10 | O=C1C(O)=C(c2ccc(O)cc2)C2CCCN12 (stereo not drawn) | > 128 | MIC [2]: 50 to 100 µg/mL (≈ 216 to 432 µM)
11 | CCC1C(c2ccc(C(F)(F)F)cc2)=C(O)C(=O)N1C(C)c1ccccc1 (stereo not drawn) | 32 (≈ 85.2 µM) | –
12 | O=C1C(O)=C(c2ccc(Br)cc2)C2CCCCN12 (stereo not drawn) | 32 (≈ 104 µM) | –
13 | C=CCC1=C(O)C(=O)N2CCCC12 (stereo not drawn) | > 128 | –
14 | O=C1C(O)=C(c2ccc(C(F)(F)F)cc2)C2CCCN12 (stereo not drawn) | 128 (≈ 452 µM) | –
15 | O=C1C(O)=C(c2cccs2)C2CCCCN12 (stereo not drawn) | 16 (≈ 68 µM) | –
16 | COc1ccc(C2=C(O)C(=O)N3CCCC23)cc1 (stereo not drawn) | > 128 | –
17 | O=C1C(O)=C(c2ccc(F)cc2)C2CCCCN12 (racemic) | > 128 | –
18 | CCC1C(c2ccc(C(F)(F)F)cc2)=C(O)C(=O)N1C1CCCCC1 (racemic) | 8 (≈ 22.6 µM) | MIC [3]: 32 µg/mL (≈ 90.6 µM); MIC [4]: 32 µg/mL (≈ 90.6 µM); MIC [5]: 8 µg/mL (≈ 22.6 µM); MIC [6]: 2 µg/mL (≈ 5.66 µM); MIC [7]: 32 µg/mL (≈ 90.6 µM); MIC [8]: 8 µg/mL (≈ 22.6 µM); MIC [9]: 64 µg/mL (≈ 181 µM); MIC [10]: 16 µg/mL (≈ 45.3 µM); MIC [11]: 2 µg/mL (≈ 5.66 µM); MIC [12]: 32 µg/mL (≈ 90.6 µM)
19 | CCC1C(c2ccc(C(F)(F)F)cc2)=C(O)C(=O)N1Cc1ccncc1 (racemic) | 64 (≈ 177 µM) | –
20 | CCCCCCN1C(=O)C(O)=C(c2ccc(C(F)(F)F)cc2)C1c1ccccc1 (racemic) | 32 (≈ 79.3 µM) | –
21 | O=C1C(O)=C(c2ccc(C(F)(F)F)cc2)C2CCCCCN12 (racemic) | 32 (≈ 103 µM) | –
